Measurements from article PMC10610214 (Pharmaceuticals, 2023).

How the values were obtained:
AChE (from electric eel) = molecular target: T1, AChE (from electric eel) (Electrophorus electricus, UniProt O42275); test: biochemical; conditions: for IC50: AChE from electric eel, mean ± SD of three experiments, read-out: AChE Inhibition (IC50)
T1 construct: AChE (from electric eel); purchased Sigma Chemical Company (St. Louis, MO, USA)
Experimental: (§1) The ChE inhibitory activity of the test compounds was determined using the modified Ellman’s method. The compounds were dissolved in DMSO (10 mmol/L) and then diluted with PB (phosphate buffer) solution to attain a range of final concentrations. […] Briefly, 100 μL of different concentrations of the test or standard compounds and 100 μL of AChE/BuChE (0.5 U/mL) were added into 48-well plates and then co-incubated at 37 °C for 30 min. […] All concentrations mentioned are final.

[1] = molecular target: T2, BuChE (from equine serum) (Equus caballus, UniProt P81908); test: biochemical; conditions: mean ± SD of three experiments, read-out: BuChE Inhibition (IC50)
T2 construct: BuChE (from equine serum); purchased Sigma Chemical Company (St. Louis, MO, USA); host or cells: equine serum
Experimental: as §1

H2O2-induced PC12 cells = test: Neuroprotection against H2O2-induced PC12 cell injury (MTT); assay type: cell-based; conditions: H2O2 250 μM, mean ± SEM
Experimental: Neuroprotection assay is similar to cytotoxicity. Oxidative cellular damage caused by H2O2 has become one of the important methods to study oxidative damage in neural cells. PC12 cells were seeded into a 96-well plate at a density of 5.0 × 10^3 cells per well. After the cells were incubated overnight, the old medium was discarded. […] After incubating overnight, 20 μL of MTT solution (5 mg/mL, Sigma-Aldrich) was added per well, and the cells were incubated for an additional 4 h. Afterwards, the supernatant was removed and 150 μL of DMSO was added. The 96-well plate was placed on the shaker for 10–15 min, and then the absorbance at 492 nm was measured by a microplate reader.

PC12 cells = test: Cytotoxicity in PC12 cells (MTT); assay type: cell-based
Experimental: The cytotoxicity and neuroprotective effects of the compounds on PC12 cells were evaluated by MTT assay. PC12 cells were seeded into a 96-well plate at a density of 5.0 × 10^3 cells per well. After the cells were incubated overnight, the old medium was discarded. The cells were incubated for another 24 h with fresh medium containing compounds at a concentration of 30 or 50 μM. A total of 20 μL of MTT solution (5 mg/mL, Sigma-Aldrich, Shanghai, China) was then added per well, and the cells were incubated for an additional 4 h. Afterwards, the supernatant was removed and 150 μL of DMSO was added to solubilize formazan crystals. The 96-well plate was placed on the shaker for 10–15 min, and then the absorbance at 492 nm was measured by a microplate reader.

T2 sequence (P81908 whole entry): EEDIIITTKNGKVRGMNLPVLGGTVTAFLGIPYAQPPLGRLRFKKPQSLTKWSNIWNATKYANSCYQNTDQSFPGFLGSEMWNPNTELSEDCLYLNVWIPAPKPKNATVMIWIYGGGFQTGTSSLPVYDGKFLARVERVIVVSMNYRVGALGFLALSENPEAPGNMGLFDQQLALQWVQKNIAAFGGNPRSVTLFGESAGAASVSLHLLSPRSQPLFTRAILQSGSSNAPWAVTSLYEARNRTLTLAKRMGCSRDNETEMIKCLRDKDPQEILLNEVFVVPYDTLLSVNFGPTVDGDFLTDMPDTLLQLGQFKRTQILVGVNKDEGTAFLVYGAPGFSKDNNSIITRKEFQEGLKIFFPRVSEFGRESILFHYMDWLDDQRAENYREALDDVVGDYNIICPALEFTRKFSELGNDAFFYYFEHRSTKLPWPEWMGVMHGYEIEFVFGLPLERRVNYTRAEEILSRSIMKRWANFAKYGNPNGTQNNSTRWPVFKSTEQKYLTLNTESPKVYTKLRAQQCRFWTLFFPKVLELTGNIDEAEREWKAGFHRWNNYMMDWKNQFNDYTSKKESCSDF
T1 sequence (O42275 24-633): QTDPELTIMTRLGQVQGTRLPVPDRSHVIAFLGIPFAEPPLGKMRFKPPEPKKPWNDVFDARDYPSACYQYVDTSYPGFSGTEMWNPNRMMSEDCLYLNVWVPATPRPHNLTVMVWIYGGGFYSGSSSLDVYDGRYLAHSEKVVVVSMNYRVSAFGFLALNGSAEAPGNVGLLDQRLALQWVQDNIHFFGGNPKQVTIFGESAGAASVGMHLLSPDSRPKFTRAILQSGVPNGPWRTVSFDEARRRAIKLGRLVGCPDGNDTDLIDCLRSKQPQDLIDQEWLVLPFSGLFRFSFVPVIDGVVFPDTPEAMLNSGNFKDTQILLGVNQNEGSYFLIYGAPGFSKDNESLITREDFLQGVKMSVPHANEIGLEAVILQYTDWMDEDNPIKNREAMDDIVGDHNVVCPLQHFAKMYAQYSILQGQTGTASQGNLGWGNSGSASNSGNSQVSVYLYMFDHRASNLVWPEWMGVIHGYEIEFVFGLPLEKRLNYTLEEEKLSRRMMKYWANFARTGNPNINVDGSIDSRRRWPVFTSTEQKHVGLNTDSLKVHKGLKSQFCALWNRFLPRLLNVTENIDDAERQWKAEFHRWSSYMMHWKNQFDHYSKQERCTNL

Row | Structure (SMILES) | IC50 (AChE (from electric eel)) | IC50 [1] | H2O2-Induced PC12 Cell Viability (% of Control) (H2O2-induced PC12 cells; compound 10 μM) | H2O2-Induced PC12 Cell Viability (% of Control) (H2O2-induced PC12 cells; compound 30 μM) | Cell Viability (% of Control) (PC12 cells; compound 30 μM) | Cell Viability (% of Control) (PC12 cells; compound 50 μM) | Selective Index, IC50 (BChE)/IC50 (AChE) (AChE (from electric eel); AChE selectivity index)
1 | O=C1c2cc(NS(=O)(=O)c3ccccc3OC(F)(F)F)ccc2-n2c1nc1ccccc1c2=O [4n] | 5.92 ± 0.56 µM | 4.93 ± 0.35 µM | 46.53 ± 1.2 % of Control | 52.84 ± 1.8 % of Control | 99.9 ± 0.7 % of Control | 99.7 ± 1.8 % of Control | –
2 | CC(C)(C)c1ccc(S(=O)(=O)Nc2ccc3nc4n(c(=O)c3c2)-c2ccccc2C4=O)cc1 [8c] | 15.8 ± 2.6 µM | > 50 µM | 39.10 ± 4.5 % of Control | 49.64 ± 4.1 % of Control | 98.4 ± 1.9 % of Control | 96.7 ± 1.9 % of Control | –
3 | O=C1c2cc(NS(=O)(=O)c3ccc(Br)cc3)ccc2-n2c1nc1ccccc1c2=O [4e] | 33 ± 1.91 µM | > 50 µM | 42.8 ± 1.5 % of Control | 57.51 ± 0.8 % of Control | 99.6 ± 2.1 % of Control | 99.5 ± 2.3 % of Control | –
4 | O=C1c2ccccc2-n2c1nc1ccc(NS(=O)(=O)c3ccc(F)cc3)cc1c2=O [8f] | 43 ± 1.12 µM | > 50 µM | 34.24 ± 3.5 % of Control | 42.25 ± 1.7 % of Control | 99.4 ± 1.7 % of Control | 98.3 ± 3.0 % of Control | –
5 | COc1ccc(S(=O)(=O)Nc2ccc3c(c2)C(=O)c2nc4ccccc4c(=O)n2-3)c(OC)c1 [4l] | 18.6 ± 1.77 µM | > 50 µM | 36.35 ± 1.6 % of Control | 39.84 ± 2.8 % of Control | 100.2 ± 3.1 % of Control | 99.8 ± 2.7 % of Control | –
6 | O=C1c2ccccc2-n2c1nc1ccc(NS(=O)(=O)c3ccccc3C(F)(F)F)cc1c2=O [8o] | 8.86 ± 0.76 µM | > 50 µM | 42.56 ± 2.1 % of Control | 54.6 ± 3.8 % of Control | 99.7 ± 2.4 % of Control | 99.4 ± 1.1 % of Control | –
7 | O=C1c2ccccc2-n2c1nc1ccc(NS(=O)(=O)c3ccccc3)cc1c2=O [8a] | 14 ± 1.67 µM | > 50 µM | 39.65 ± 3.1 % of Control | 50.98 ± 1.8 % of Control | 100.1 ± 1.5 % of Control | 99.8 ± 1.7 % of Control | –
8 | COc1ccc(S(=O)(=O)Nc2ccc3nc4n(c(=O)c3c2)-c2ccccc2C4=O)cc1OC [8k] | > 50 µM | > 50 µM | 44.37 ± 0.5 % of Control | 52.28 ± 2.3 % of Control | 99.6 ± 1.2 % of Control | 99.5 ± 2.7 % of Control | –
9 | Cc1ccc(S(=O)(=O)Nc2ccc3nc4n(c(=O)c3c2)-c2ccccc2C4=O)cc1 [8b] | 4.55 ± 0.8 µM | > 50 µM | 42.01 ± 1.7 % of Control | 51.37 ± 2.1 % of Control | 101.2 ± 3.1 % of Control | 99.8 ± 2.4 % of Control | –
10 | CC(=O)Nc1ccc(S(=O)(=O)Nc2ccc3nc4n(c(=O)c3c2)-c2ccccc2C4=O)cc1 [8i] | > 50 µM | 25.9 ± 2.38 µM | 48.46 ± 1.6 % of Control | 59.63 ± 2.5 % of Control | 99.8 ± 1.2 % of Control | 99.4 ± 1.3 % of Control | –
11 | O=C1c2ccccc2-n2c1nc1ccc(NS(=O)(=O)c3c(Cl)cccc3Cl)cc1c2=O [8p] | > 50 µM | > 50 µM | 42.32 ± 0.7 % of Control | 50.5 ± 0.5 % of Control | 99.6 ± 2.7 % of Control | 98.2 ± 1.7 % of Control | –
12 | COc1ccc(S(=O)(=O)Nc2ccc3nc4n(c(=O)c3c2)-c2ccccc2C4=O)c(OC)c1 [8l] | > 50 µM | > 50 µM | 34.61 ± 3.7 % of Control | 38.1 ± 2.7 % of Control | 99.4 ± 1.1 % of Control | 98.7 ± 1.3 % of Control | –
13 | O=c1c(O)c(-c2ccc(O)c(O)c2)oc2cc(O)cc(O)c12 [Quercetin, reference compound] | – | – | 55.21 ± 1.6 % of Control | 63.27 ± 2.1 % of Control | 99.6 ± 1.1 % of Control | 99.5 ± 1.3 % of Control | –
14 | CC(=O)Nc1ccc(S(=O)(=O)Nc2ccc3c(c2)C(=O)c2nc4ccccc4c(=O)n2-3)cc1 [4i] | 8.8 ± 1.23 µM | > 50 µM | 34.43 ± 5.5 % of Control | 40.93 ± 2.9 % of Control | 99.6 ± 1.7 % of Control | 98.3 ± 3.0 % of Control | –
15 | O=C1c2cc(NS(=O)(=O)c3ccccc3C(F)(F)F)ccc2-n2c1nc1ccccc1c2=O [4o] | 2.45 ± 0.25 µM | 8.61 ± 1.2 µM | 42.32 ± 0.7 % of Control | 50.5 ± 0.5 % of Control | 99.6 ± 2.7 % of Control | 98.2 ± 1.7 % of Control | 3.5
16 | O=C1c2cc(NS(=O)(=O)c3c(Cl)cccc3Cl)ccc2-n2c1nc1ccccc1c2=O [4p] | 0.62 ± 0.09 µM | > 50 µM | 48.49 ± 4.5 % of Control | 65.6 ± 2.2 % of Control | 99.6 ± 2.7 % of Control | 99.3 ± 2.9 % of Control | –
17 | COc1ccc(S(=O)(=O)Nc2ccc3c(c2)C(=O)c2nc4ccccc4c(=O)n2-3)cc1 [4j] | > 50 µM | > 50 µM | 38.24 ± 3.1 % of Control | 41.69 ± 1.7 % of Control | 99.7 ± 1.6 % of Control | 99.1 ± 1.2 % of Control | –
18 | O=C1c2ccccc2-n2c1nc1ccc(NS(=O)(=O)c3ccccc3F)cc1c2=O [8h] | > 50 µM | > 50 µM | 36.03 ± 3.0 % of Control | 46.73 ± 3.5 % of Control | 99.4 ± 1.4 % of Control | 98.3 ± 2.7 % of Control | –
